The values that follow come from patent US8524860B2, “Peptides with capacity to bind to scurfin and applications” (Proyecto de Biomedicina CIMA, S.L., priority 2007, dated 2013).

No end group written: not given here.

For test [1], the target named is T1, scurfin (Homo sapiens, UniProt Q9BZS1).
T1 construct: GST (glutathione-S-transferase); made in house; host or cells: Escherichia coli BL21
T1 sequence (Q9BZS1 1-431): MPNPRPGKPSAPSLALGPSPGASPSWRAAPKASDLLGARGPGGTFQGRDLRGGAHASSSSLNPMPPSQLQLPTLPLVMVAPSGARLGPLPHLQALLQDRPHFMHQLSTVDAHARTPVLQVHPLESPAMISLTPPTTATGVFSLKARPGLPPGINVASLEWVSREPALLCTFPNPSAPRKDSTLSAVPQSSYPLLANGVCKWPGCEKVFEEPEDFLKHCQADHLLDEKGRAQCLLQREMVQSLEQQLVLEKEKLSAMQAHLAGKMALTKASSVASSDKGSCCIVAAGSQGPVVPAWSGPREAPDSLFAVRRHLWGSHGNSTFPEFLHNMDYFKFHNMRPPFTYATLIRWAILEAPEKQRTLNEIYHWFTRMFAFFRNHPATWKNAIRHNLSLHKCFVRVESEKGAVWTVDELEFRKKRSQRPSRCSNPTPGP
In words: Surface plasmon resonance (SPR) analysis of peptide binding to immobilized scurfin. The following applies: peptide 10 μM, scurfin immobilized on CM5 chip, compared with irrelevant control peptide (SEQ ID NO: 6). The text has this: The capacity of peptide P60 (SEQ ID NO: 1) to bind to scurfin was verified by means of the biomolecular interaction surface plasmon resonance (SPR) using the Biosensor BIAcore X (BIAcore, AB, Uppsala, Sweden). Scurfin, produced in E. coli and purified by affinity using GSTrap columns (Amersham, Pharmacia), was covalently immobilized on the surface of the flow cell 2 (FC2) of a CM5 chip (Sensor Chip CM Ref 116Br-1000-14, BIAcore, General Electrics), as described in De Crescenzo et al. (JBC 2001, Vol 276; 29632-29643). Flow cell 1 (FC1), on the surface of which scurfin is not immobilized, was used as a reference reflow cell. The solutions of each peptide (10 μM) were injected three times in a 10 mM Hepes buffer, 150 mM NaCl, pH 7.4 at a flow of 30 μl/min. The binding curves were processed by means of subtracting the response in FC1 from that obtained in FC2. The response in equilibrium was compared between peptide P60 (SEQ ID NO: 1) and an irrelevant control peptide of the same size (length), specifically, the peptide the amino acid sequence of which is shown in SEQ ID NO: 6, corresponding to amino acids 123-137 of the human CD81 receptor. Each response was multiplied by a mass correction factor: MW(P60)/MW(P), wherein MW(P60) is the molecular weight of peptide P60 (SEQ ID NO: 1) and MW(P) is that of the control peptide.
For the purpose of evaluating the importance of the amino acids placed at the amino-terminal and carboxyl-terminal ends of peptide P60 (SEQ ID NO: 1), truncated forms of said peptide P60 (SEQ ID NO: 1) were chemically synthesized as has been mentioned above, and the capacity of said truncated forms to bind to scurfin was assayed by means of SPR, according to the protocol previously described in section 1.3.
Likewise, the capacity of said peptides (SEQ ID NO: 2, SEQ ID NO: 3 and SEQ ID NO: 4) to bind to scurfin was assayed by means of SPR in the previously mentioned conditions.

Test [2] concerns murine Treg lymphocytes. As to the kind of experiment: Murine MLR (BALB/c effector lymphocytes with C57BL/6 dendritic cells) with BALB/c Treg lymphocytes, tritiated thymidine incorporation. Type of test: cell-based, mouse. The note with it: 100 μM. The method, then:
Secondly, mixed lymphocyte reaction (MLR) assays were carried out. The effector lymphocytes isolated from BALB/c mice (10^5 cells/well) were co-cultured with purified dendritic cells from C57BL/6 mice (Charles River), in the presence or absence of BALB/c Treg lymphocytes and in the presence or absence of peptide P60 (SEQ ID NO: 1) (100 μM). The measurement of the cell proliferation was carreid out by means of a conventional tritiated thymidine incorporation assay as has been previously described.
Background: Dividing cells build labelled thymidine or BrdU into new DNA.

In test [3] the test system is CT26 colon cancer line. As to the kind of experiment: CT26 colon cancer tumor model, antitumor vaccination with peptide AH1. Type of test: in vivo, BALB/c mice. The following applies: for protection from tumor: n=11. The text has this:
The tumor model used for this assay has been a model based on the CT26 colon cancer line, described in a previous work of the laboratory of the inventors (Casares et al, 2001. Eur J Immunol 31:1780-9; Casares et al., 2003. J Immunol 171:5931-9), since the inventors had previously shown that, in this model, Treg lymphocytes have an immunosuppressive effect favoring tumor growth (Casares et al., 2003, mentioned above).
The synthetic peptide (SEQ ID NO: 8) was used as a vaccine antigen, which peptide contains a cytotoxic T determinant for the CT26 line (Huang, A. Y. et al, Proc Natl Acad Sci USA, 1996. 93:9730-9735) and the immunization of which delays the tumor growth to a certain extent, without eliminating it due to the presence of Treg lymphocytes (Casares et al., 2003, mentioned above).
Briefly, groups of 6 six-week old BALB/c mice (Charles River) were immunized with peptide AH1 (SEQ ID NO: 8) as described in Casares et al., 2001, mentioned above, in the presence or absence of peptide P60 (SEQ ID NO: 1). Ten days after the immunization, the mice were subcutaneously injected with 5×10^5 CT26 cells, and the tumor evolution was measured.

The subject of test [4] is human Treg lymphocytes. As to the kind of experiment: IFN-γ production by human CD4 effector T lymphocytes stimulated with anti-CD3/CD28 microspheres with human Treg lymphocytes. Type of test: cell-based. The note with it: 100 μM, anti-CD3/CD28 stimulus, 48 hours, ELISA. The method, then: This assay is based on the measurement of the production of IFN-γ in a culture of 10^5 human CD4 effector T lymphocytes cultured with microspheres containing anti-CD3 and anti-CD28 antibodies adhered to their surface (Dynabeads® CD3/CD28; Ref 111.31, Dynal), in the presence or absence of 2×10^4 human Treg lymphocytes (purified as indicated above). This assay was carried out in the presence or absence of peptide P60 (SEQ ID NO: 1) to assess its inhibitory effect of Treg lymphocytes. After 48 hours of culture, the presence of IFN-γ in the culture supernatants was measured by means of a commercial ELISA (Ref 555138, Pharmingen).
(In general: In an ELISA, binding on a coated surface is turned into a signal by an enzyme label.)

In test [5] the test system is Karpas 299 human cell line. As to the kind of experiment: Mixed lymphocyte reaction (MLR) of PBMCs from 2 donors with Karpas 299 cells, IFN-γ ELISA. Type of test: cell-based. The method, then:
After verifying and confirming its profile, in vitro assays were carried out using the Karpas 299 human cell line (ACC-31, DSMZ, Germany), derived from a human lymphoma with a regulatory T cell [Treg lymphocytes] profile (Wolke et al Int J Mol. Med. 2006 February; 17(2):275-8), the need to isolate CD4+CD25+ cells is thus prevented.
To evaluate the effect of peptide P60 (SEQ ID NO: 1) on the immunosuppressive activity of the Karpas 299 cell line, a “mixed lymphocyte reaction” (MLR) assay was carried out using peripheral blood mononuclear cells (PBMCs) from 2 donors in the presence or absence of the Karpas 299 cell line. This assay (MLR) is based on co-culturing lymphocytes of a different origin, with different histocompatibilities, which will recognize one another as foreign. This reaction makes lymphocytes proliferate, secreting cytokines. For this assay, 100,000 cells of each donor (positive MLR control) were cultured in a 96-well plate, alone or in the presence of 10,000 cells of the Karpas 299 cell line.
After 48 hours, the supernatants were extracted to measure interferon-gamma (IFN-γ) by means of a commercial ELISA (Ref 555138, Pharmingen, San Diego, Calif., United States). […] In this assay of inhibition of the MLR due to the presence of the Karpas 299 cell line, the capacity of peptide P60 (SEQ ID NO: 1) to restore the production of IFN-γ due to the MLR was analyzed.

Test [6] deals with human Treg lymphocytes. In words: MLR of PBMCs from 2 donors with human Treg lymphocytes, tritiated thymidine incorporation. Type of test: cell-based. The following applies: 100 μM, 3 days of culture. The method, then: To carry out the assay based on a mixed lymphocyte reaction (MLR), such as that shown in Example 2, peripheral blood mononuclear cells (PBMCs) from 2 donors were mixed together with CD4+CD25+ Treg cells (Treg lymphocytes) purified from one of them, by means of using a commercial kit (Ref 130091072, Miltenyi Biotec, Bergisch Gladbach, Germany) following the instructions of the manufacturer. After the purification, the cells were analyzed by flow cytometry, a purity of approximately 90% being obtained in all the assays. This MLR assay was carried out incubating 10^5 PBMC cells from each donor and 2×10^4 Treg lymphocytes in the presence or absence of peptide P60 (SEQ ID NO: 1), for the purpose of assaying its capacity to block the inhibitory effect of human Treg lymphocytes. After 3 days of culture, 0.5 μCi/well of tritiated thymidine (Amersham, Pharmacia) and after 16 hours, the plates were harvested using a harvester (Filtermate 96 harvester; Packard Instrument, Meriden, Conn.) and the radioactivity incorporated to the cell DNA was counted (as a measurement of the cell proliferation) by means of a scintillation counter (Topcount; Packard Instrument).

For test [7], the system named is murine Treg lymphocytes. As to the kind of experiment: Co-culture of OT-1 transgenic mouse effector lymphocytes with dendritic cells, SIINFEKL antigen and Treg lymphocytes, IFN-γ ELISA. Type of test: cell-based. The following applies: 100 μM, SIINFEKL 10 μg/ml, OT-1 effector lymphocytes. How it is done:
Thirdly, the effect of peptide P60 (SEQ ID NO: 1) was measured in an assay based on co-culturing splenocytes from OT-1 transgenic mice (the T lymphocytes of which have a specific T cell receptor for the peptide SIINFEKL (SEQ ID NO: 7) of ovalbumin, which were kindly provided by Dr Melero, CIMA Pamplona) with Treg lymphocytes in the presence of antigen (SEQ ID NO: 7) and in the presence or absence of Treg lymphocytes. […] The effector lymphocytes isolated from OT-1 transgenic mice (10^5 cells/well) were co-cultured with dendritic cells from C57BL/6 mice and the peptide SIINFEKL (SEQ ID NO: 7) (10 μg/ml), in the presence or absence of 2×10^4 BALB/cregulatory T cells and in the presence or absence of peptide P60 (SEQ ID NO: 1) (100 μM).

Test [8] deals with inhibition of the activation of transcription factor NF-κB by scurfin. In words: NF-κB luciferase reporter in 293 cells transfected with pcDNA-Foxp3. Type of test: cell-based. The following applies: 100 μM, 24 hours. The text has this:
It has been described that the presence of scurfin can inhibit the activation of the transcription factor NF-kB in 293 cells (Betelli et al, Proc Natl Acad Sci USA. 2005 102:5138-43). Based on this work, the effect of the addition of peptide P60 (SEQ ID NO: 1) to a culture of 293 cells transfected with a plasmid expressing the foxp3 gene, kindly provided by Dr Oukka and previously described (Betelli et al, Proc Natl Acad Sci USA. 2005 102:5138-43) and to a culture of 293 cells transfected with a control plasmid together with a plasmid expressing luciferase under a promoter inducible by NF-κB (Ref 631904, pNF-kB-Luc, Clontech) has been studied. The 293 cells were transfected by means of using lipofectamine with plasmid pNF-kB-Luc expressing luciferase under a promotor inducible by transcription factor NF-kB, in the presence or absence of plasmid pcDNA, pcDNA-Foxp3 and peptide P60 (SEQ ID NO: 1) (100 μM). After 24 hours of culture, the cells were harvested and the luciferase activity in the cell extracts was measured by means of using a suitable kit (Promega, Maddison, USA) and the luminometer (Orion Microplate luminometer, Berthold detection systems, Germany).
Background: In a reporter assay the amount or activity of a reporter protein is the signal.

The test system of test [9] is murine Treg lymphocytes. As to the kind of experiment: Activation of BALB/c mouse splenocytes with anti-CD3 antibodies with murine Treg lymphocytes, IFN-γ. Type of test: cell-based. The note with it: 100 μM. How it is done:
Firstly, assays of activation of BALB/c mouse splenocytes (Charles River) in the presence of anti-CD3 antibodies (Ref 553057, BD Biosciences) were carried out.

In the case of “RDFQSFRKMWPFFA [T(1-14), truncated form of P60, amino acids 1-14 of P60]”, in [1], the “capacity to bind to scurfin (SPR signal)” value is listed as “does not destroy the capacity of the peptide to bind to scurfin”.

In the case of “RDFQSFRKMWPFF [T(1-13), truncated form of P60, amino acids 1-13 of P60]”, in test [1], the “capacity to bind to scurfin (SPR signal)” value is reported as “does not destroy the capacity of the peptide to bind to scurfin”.

RDFQSFRKMWPFFAM [P60]: the “inhibition of the immunosuppressive effect of Treg lymphocytes on proliferation of effector cells in response to an MLR” value in [2] is “capable of inhibiting the immunosuppressive effect of Treg lymphocytes on the proliferation of effector cells”. The protection from tumor in [3] (mice immunized with peptide AH1 and treated with P60 50 nm/mouse i.p. days 0, 2, 4, 6, 8, 10) was found to be 82%; in test [3] (peptide P60 alone, non-immunized mice), 10%. Also, in [3] (of the 11 mice immunized with peptide AH1 and treated with P60), the “mice that developed a palpable tumor” value is on record as 2. Besides, the “restoration of the production of IFN-γ inhibited by human Treg lymphocytes” value in [4] is “partly restoring the production of IFN-γ”. For the same substance, in test [5] (100 μM, 48 hours, ELISA), the “restoration of the production of IFN-γ due to the MLR inhibited by Karpas 299 cells” value is on record as “capable of partly recovering the production of IFN-γ”. In addition, in test [5] (several in vitro assays (Example 2)), the “inhibitory activity on the immunosuppressive action of Treg cells among the 25 peptides selected” value is “highest inhibitory activity”. In test [6], the “restoration of the MLR (cell proliferation) inhibited by human Treg lymphocytes” value was “capable of partly restoring the MLR”. In [7], the “inhibition of the immunosuppressive effect of Treg lymphocytes on production of IFN-γ by antigen-specific effector cells” value is reported as “capable of inhibiting the immunosuppressive effect of Treg lymphocytes on the production of IFN-γ”. For the same substance, the “capacity to bind to scurfin (SPR signal)” value in test [1] is “positive signal”. The “expression of luciferase (NF-κB reporter) inhibited by scurfin” value in test [8] is “restores the expression of luciferase”. For the same substance, the “inhibition of the immunosuppressive effect of Treg lymphocytes on production of IFN-γ in response to anti-CD3” value in test [9] is “capable of inhibiting the immunosuppressive effect of Treg lymphocytes on the production of IFN-γ”.

Turning to “AH1: synthetic peptide used as vaccine antigen, contains a cytotoxic T determinant for the CT26 line (SPSYVYHQF) [reference compound]”, the protection from tumor in test [3] (mice immunized with AH1 alone) was 0%.

“T(2-15): truncated form of P60, amino acids 2-15 of P60 (DFQSFRKMWPFFAM)”: in test [1], the “capacity to bind to scurfin (SPR signal)” value was “inhibits the capacity of the peptide to bind to scurfin”.
